Data as given in the METLIN SMRT retention time set (Domingo-Almenara et al. 2019).

Assay: gradient 5% acetonitrile 3 min, to 50% in 2 min, to 85% in 15 min, held 3 min, 100 µL/min
Details: column: Zorbax Extend-C18 2.1 x 50 mm; eluents: water / acetonitrile, 0.1% formic acid
How it was run: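 Retention times come from adduct peaks that were picked computationally and then checked by hand. The standards, pure and pooled in mixtures of ~100 molecules, were run on a Zorbax Extend-C18 column (2.1 × 50 mm, 1.8 μm) at 100 μL/min with water and acetonitrile, each with 0.1% formic acid. Detection was by quadrupole time-of-flight mass spectrometry in positive and negative ionization mode, with a dead volume of 40 μL and a dwell volume of 900 μL.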

SMILES	RP-LC retention time [s]
COc1ccc(OCc2nn3c(-c4ccoc4C)nnc3s2)cc1	900
Cc1cc(C2CCCN2C(=O)c2ccc(C)s2)no1 (centres undefined)	770
Cc1c(Cl)cccc1NC(=O)NCC1(N2CCOCC2)CCOC1 (centres undefined)	614
COc1ccc(N2N=NC3C(=O)N(c4ccc(F)cc4)C(=O)C32)cc1OC (centres undefined)	1140
Cc1sc2cc(C(=O)NCC3CC3)[nH]c2c1CN1CCCCC1	634
CCCn1cnc2cc(-c3noc(COc4ccc(F)cc4)n3)ccc21	787
Cc1cccc(OCC(=O)N2CCN(c3cc(=O)n(C(C)C)c(=O)n3C(C)C)CC2)c1	909
CCC(=O)N1c2ccc(S(=O)(=O)N3CCCCC3)cc2CC1C(=O)NC1CCCCCC1 (centres undefined)	1010
CCn1cc(C(=O)NCCc2ccc(Cl)cc2)c(S(=O)(=O)N2CCSCC2)n1	935
Cn1cccc1C(=O)N1C[C@H]2C[C@H](C1)[C@H]1CCCC(=O)N1C2	639
CCOC(=O)c1sc(NC(=O)Cn2nc3c(cc2=O)CCCC3)nc1C	764
Cc1ccc(NC(=O)Cc2nnc(-c3cnccn3)o2)c(C)c1	700
Cc1ccc(-c2ccnc3c(C(=O)NC(C)c4ccncc4)cnn23)cc1C (centres undefined)	668
Cc1ccc2c(c1)N(Cc1nc(-c3ccc(F)cc3)no1)C(=O)CO2	1060
O=C(CC1CCCC1)NCCC1CCN(C(=O)Nc2cc(F)cc(F)c2)CC1	905
O=C1CC(NC(=O)NCc2ccc(Cl)cc2)CN1 (centres undefined)	592
COc1ccc(-c2c(C)noc2NC(C)=O)cc1S(=O)(=O)Nc1c(C)cc(C)cc1C	838
CCOc1cc(C2C(C(=O)OC(C)C)=C(C)N=C3SCCC(=O)N32)ccc1OC(C)=O (centres undefined)	908
CCNC(=O)CCc1cc2cc(C)ccc2[nH]c1=O	638
COCC(=O)N1CCC2(CCC2O)CC1 (centres undefined)	577
CCc1nc(N2CCC(C(=O)NCc3cccc(C(F)(F)F)c3)CC2)c2c(C)scc2n1	786
COc1cc(NC(=O)c2cn3c(n2)CN(CC(C)C)CC3)cc(OC)c1	818
Cc1cc(-c2nnc(NC(=O)NCc3ccc(Cl)cc3)o2)c(C)o1	853

SMILES	RP-LC retention time [s]
Cc1ccc(NC(=O)N(C)CCc2noc(COc3ccccc3F)n2)c(C)c1	922
CCOC(=O)N1CCC(Nc2c(N3CCN(c4ccccn4)CC3)c(=O)c2=O)CC1	572
CCCCN(C)C(=O)C1CCN(c2cncnc2N2CCCCC2)CC1	661
CC1CN(C(=O)CSc2nc(-c3ccco3)cc(C(F)(F)F)n2)CC(C)O1 (centres undefined)	952
O=C(NCc1ccc(F)cc1Cl)c1ccc2c(c1)ncn2CCN1CCCC1	598
Cc1ccc(Cn2nnc(-c3noc(C)n3)c2C)cc1	860
Cc1ccc(NC(=O)c2cccn2Cc2noc(C)n2)c(Br)c1	942
Cc1ccsc1C(=O)Nc1nnc(SCc2nnc(-c3ccc4c(c3)OCO4)o2)s1	884
Cc1cc(=O)n(CC(=O)Nc2ccc(F)cc2F)c(N2CCOCC2)n1	651
CCn1nccc1C(=O)N1C[C@@H]2CCCN3CCC[C@@H]([C@H]23)[C@H]1CCCC(=O)N1CCOCC1	572
Cc1ccc(CNC(=O)c2c(-c3cccc(Br)c3)noc2C)o1	987
CC(C)CCNC(=O)c1ccc(Oc2nccnc2N2CCC(C)CC2)cc1	1170
CN1CCCn2cc(S(=O)(=O)Nc3ccc(F)c(F)c3)cc2C1=O	690
Cc1ccc(N2CC(c3noc(-c4ccsc4)n3)CC2=O)cc1 (centres undefined)	932
CCCNc1cc(N2CCC(CCC(=O)NCCN3CCc4ccccc4C3)CC2)ncn1	574
COCCC1(N(C)C)CCN(C(=O)CC2CCCCC2)CC1	621
O=S(=O)(c1ccc(Cl)cc1)N1CCC(c2nc(-c3cccnc3)no2)CC1	961
Cc1ccc(F)cc1NS(=O)(=O)c1cc(-c2[nH]ncc2C(=O)N2CCCCC2)oc1C	791
O=C(NCCc1csc(C2CCCN(C(=O)C3CCC3)C2)n1)C1CC1 (centres undefined)	691
COc1ccc2c3c([nH]c2c1)[C@H](C=C(C)C)N1C(=O)[C@@H]2CCCN2C(=O)[C@@H]1C3	871
O=C(CSc1ncccn1)N1CCCC1	591
Cc1cc(C)cc(C(=O)N2CCC3(CC2)NC(=O)c2cc(F)ccc2N3C)c1	787
Cc1cnc(C2CCOCC2)n1CC1CN(C(=O)C2CC=CC2)C1	568

Now from value to molecule:

RP-LC retention time [s]	SMILES
893	O=C(COCc1nnc(C(=O)Nc2cccc(F)c2)s1)NCCc1c[nH]c2ccccc12
1360	COc1cccc(-c2nc(-c3ccc(S(=O)(=O)N4CCC(C)CC4)cc3)no2)c1
1140	O=C(Cn1cccc1-c1nc(-c2ccc3c(c2)OCO3)no1)Nc1ccccc1
657	COc1ccc(C2C(C(=O)O)c3ccccc3C(=O)N2C)cc1OC (centres undefined)
840	CC(NC(=O)c1ccccc1)c1nc(-c2cccc(-c3ccnn3C)c2)no1 (centres undefined)
650	O=C(c1ccco1)N1CCC(n2c(-c3ccoc3)nc3cccnc32)C1 (centres undefined)
981	COc1ccc(Cl)cc1S(=O)(=O)N1CCCC(C)(C(=O)NCc2ccccc2)C1 (centres undefined)
652	CCOC(=O)N1CCN(C(=O)Cn2cnc(-c3ccc(OC)cc3)cc2=O)CC1
615	Cn1ncc2c3ccccc3n(CC(=O)NCCCN3CCCC3=O)c2c1=O
862	CN1C(=O)c2cc(S(=O)(=O)Nc3ccccc3)ccc2Oc2cccnc21
650	CNC(=O)[C@@H]1C[C@H](Oc2ccccc2)CN1C(=O)c1n[nH]c(=O)c2ccccc12
762	COc1ccc(S(=O)(=O)N2C[C@@H](F)C[C@H]2C(=O)N2CCCCC2)cc1
1040	CCC(=O)N1CCc2c(C(=O)N3CCN(c4cc(C)ccc4C)CC3)cccc21
784	Cn1nc(-c2nnc(-c3ccccc3Cl)o2)c2c1CCN(C(=O)c1ccco1)C2
737	O=C(NCc1cccs1)c1ccc(-n2cccn2)nn1
582	Cc1noc([C@@H]2CN(Cc3cn[nH]c3-c3ccccc3)C[C@H]2CO)n1
875	O=C(C1=CN(c2ccc(Cl)cc2)c2cc(Cl)ccc2S1(=O)=O)N1CCOCC1
669	Cn1cc(CC(=O)NCc2cccc(F)c2)c2cccnc21
939	O=C(c1ccc2c(c1)CCCN2S(=O)(=O)c1ccccc1)N1CCCCC1
896	O=C1NCCCCCCN(C(=O)c2ccc3ccccc3n2)[C@H]2C[C@H](C(=O)N3CCc4ccccc4C3)C[C@@H]12
954	COCCN1C(=O)c2ccccc2C(C(=O)NCC2COc3ccccc3O2)C1c1ccc(F)cc1 (centres undefined)
602	COc1ccccc1OCCCn1c(C2CCCO2)nc2ccccc21 (centres undefined)

RP-LC retention time [s]	SMILES
563	O=C(NCc1cccnc1)c1ccc2ccnc(N3CCN(C(=O)c4ccco4)CC3)c2c1
1020	CC(C)CCNC(=O)C1(C)CN(S(=O)(=O)c2ccccc2)CC(=O)N1c1cccc(Cl)c1 (centres undefined)
665	O=C(c1nc2ccccn2c1-c1ccsc1)N1CCCCC1
681	O=C(NC1CC1)C1CCN(c2cnn(Cc3ccccc3)c(=O)c2)CC1
717	O=C(Nc1nc2c(s1)CN(C(=O)c1cc(-c3ccc(F)cc3)n[nH]1)CC2)c1ccco1
866	O=C(NCCc1csc(-c2ccccc2)n1)C1CCN(C(=O)Cc2ccc(Cl)cc2)CC1
651	O=S(=O)(c1ccccc1)c1[nH]c(-c2ccccc2)nc1SCc1ccncc1
965	Cc1cc2nn(CC(=O)Nc3ccccc3)c(=O)n2c(Nc2ccccc2)n1
812	CSc1ccc(CNC(=O)Cn2cc(-c3nnc(C)o3)c3ccccc32)cc1
876	COc1ccc(-c2csc(Nc3ccc(C(=O)O)cc3)n2)cc1
857	O=C(Nc1ccccc1)OC1CCCC(NC(=O)C2(c3ccccc3)CCOCC2)C1 (centres undefined)
809	CCc1nc2oc3cc(OC)ccc3c(=O)c2c(=O)n1-c1ccc(C)cc1
710	Cc1cc(C)n2nc(SCC(=O)N(C)Cc3ccccc3)nc2n1
658	COc1ccc(-c2ncc3c(n2)CCN(C(=O)Nc2c(F)cccc2F)C3)cc1
633	Cc1cnc(-c2ccccc2)n1CCNS(=O)(=O)c1cccc(F)c1
966	COc1cccc(N2CCCn3c2nc2c3c(=O)n(Cc3c(F)cccc3Cl)c(=O)n2C)c1
712	CCOC(=O)CSc1nnc(NC(=O)C2CC(=O)N(c3ccc(F)cc3)C2)s1 (centres undefined)
697	CCN(CC)CCNC(=O)Cn1ncc2c3ccccc3n(C)c2c1=O
821	COc1ccc(NC(=O)C2CCN(S(=O)(=O)c3ccc4[nH]c(=O)sc4c3)CC2)cc1Cl
1070	O=S(=O)(c1cc(F)ccc1F)N1CCc2nc(-c3ccccc3)ncc2C1
874	CCn1nccc1-c1cccc(-c2noc(CNC(=O)c3ccccc3)n2)c1
